These are literature values, as cited in patent publication US7365077B2, “Piperazine bis-amide derivatives and their use as antagonists of the orexin receptor” (SmithKline Beecham p.l.c., priority 2001, dated 2008).

No end group written: not given here.

The subject of data set [1] is freely-feeding rats. The note with it: central administration, 4 hour time period.
The subject of data set [2] is orexin receptors. To be noted: central administration at the onset of the normal sleep period, rat.

For “orexin-A: Peptide ligand (agonist) of the orexin receptors; human sequence given in b87 (QPLPDCCRQKTCSCRLYELLHGAGNHAAGILTL; ends and bridges not checked; cysteine pairing not given here; UniProt O43612 34-66, looked up)”, in data set [1], the “increase in food intake over control rats receiving vehicle” value is on record as “approximately four-fold”. In addition, in data set [2], the effect on arousal entry is “dose-related increase in arousal”.
